Laboratory results reported in ChEMBL document CHEMBL1128993, “Optimization of retro-thiorphan for inhibition of endothelin converting enzyme” (Bioorg Med Chem Lett, 1996).

Columns and labels:
[1] = tested on: Endothelin-converting enzyme 1 (Sus scrofa); assay: Inhibition of endothelin-converting enzyme 1 partially purified from porcine primary aortic endothelial cells at 20 uM; conditions: Endothelial cell
[2] = tested on: Endothelin-converting enzyme 1 (Sus scrofa); assay: Compound was evaluated for inhibition of Endothelin converting enzyme-1 partially purified from porcine primary aortic endothelial cells at 20 uM; conditions: Endothelial cell

O=C(N[C@@H](CS)Cc1ccc(-c2ccccc2)cc1)c1cccnc1
inhibition [1]: 39%

O=C(N[C@@H](CS)Cc1ccccc1)c1ccco1
inhibition [1]: 54%

O=C(Cc1ccccc1OCc1ccccc1)N[C@@H](CS)Cc1ccccc1
inhibition [2]: 63%

O=C(N[C@H](Cc1c[nH]c2ccccc12)C(=O)NCCS)c1cccnc1
inhibition [1]: > 20%

CC(C)[C@H](CS)NC(=O)c1cccnc1
inhibition [1]: 30%

O=C(N[C@@H](CS)Cc1ccccc1)/C(=C/c1ccccc1)c1ccccc1
inhibition [1]: 23%

O=C(CCC(C(=O)O)c1ccccc1)N[C@@H](CS)Cc1ccccc1 (some centres undefined)
inhibition [1]: 48%

O=C(N[C@@H](CS)Cc1ccccc1)c1nccc2ccccc12
inhibition [1]: 36%

O=C(N[C@@H](CS)Cc1ccccc1)c1cccs1
inhibition [1]: 67%

CC(C)C[C@H](CS)NC(=O)c1cccnc1
inhibition [1]: 21%

O=C(Cc1ccccc1)N[C@@H](CS)Cc1ccccc1
inhibition [1]: 58%

O=C(Cc1ccccc1)N[C@@H](CS)Cc1ccc(OCc2ccccc2)cc1
inhibition [1]: 15%

O=C(CCc1cccnc1)N[C@@H](CS)Cc1ccccc1
inhibition [1]: 66%

O=C(Cc1ccc(-c2ccccc2)cc1)N[C@@H](CS)Cc1cccnc1
inhibition [1]: 91%

O=C(N[C@@H](CS)Cc1ccccc1)c1ccncc1
inhibition [1]: 48%

O=C(CCc1ccccc1)N[C@@H](CS)Cc1ccccc1
inhibition [1]: 49%

O=C(N[C@@H](CS)Cc1ccccc1)C1Cc2ccccc2CN1 (some centres undefined)
inhibition [1]: 33%

O=C(N[C@@H](CS)Cc1ccccc1)c1c[nH]c2ccccc12
inhibition [1]: 67%

CN(C(=O)Cc1ccccc1)[C@@H](CS)Cc1ccccc1
inhibition [1]: 24%

O=C(Cc1ccc(OCc2ccccc2)cc1)N[C@@H](CCS)Cc1c[nH]c2ccccc12
inhibition [1]: > 20%

O=C(N[C@@H](CS)Cc1ccccc1)c1cc2ccccc2cn1
inhibition [1]: 76%

O=C(N[C@@H](CS)Cc1ccccc1)[C@@H]1CCCN1
inhibition [1]: 0%

O=C(CCc1ccccc1O)N[C@@H](CS)Cc1ccccc1
inhibition [1]: 58%

Cn1cc(C[C@H](CS)NC(=O)Cc2ccc(-c3ccccc3)cc2)c2ccccc21
inhibition [1]: 68%

O=C(Cc1cccnc1)N[C@@H](CS)Cc1ccccc1
inhibition [1]: 58%

O=C(Cc1ccc(OCc2ccccc2)cc1)N[C@@H](CS)Cc1ccc2ccccc2c1
inhibition [1]: 10%

O=C(Cc1ccc(-c2ccccc2)cc1)N[C@@H](CS)CCc1ccccc1
inhibition [1]: 16%

O=C(Cc1ccc(OCc2ccccc2)cc1)N[C@@H](CS)Cc1cccc2ccccc12
inhibition [1]: 51%

O=C(Cc1ccccc1)N[C@@H](CS)Cc1ccc(O)cc1
inhibition [1]: 56%

O=C(CCc1ccccc1Cl)N[C@@H](CS)Cc1ccccc1
inhibition [1]: 57%

O=C(N[C@@H](CS)Cc1ccccc1)c1ccccn1
inhibition [1]: 52%

O=C(Cc1ccc(OCc2ccccc2)cc1)N[C@@H](CS)Cc1ccc(-c2cccc3ccccc23)cc1
inhibition [1]: 0%

O=C(Cc1ccc(OCc2ccccc2)cc1)N[C@H](Cc1c[nH]c2ccccc12)C(=O)N1CCC[C@@H]1CS
inhibition [1]: > 20%

O=C(Cc1ccc(-c2ccccc2)cc1)N[C@@H](CS)Cc1ccccc1
inhibition [1]: 74%
